According to ChEMBL document CHEMBL6120962, “New Mitochondria-Targeted Fisetin Derivative Compromises Mitophagy and Limits Survival of Drug-Induced Senescent Breast Cancer Cells” (J Med Chem, 2024):
Active and inactive are the calls of the source. The rule behind the calls is not given here.

Tests used:
CAMA-1 [1] = assay: Anticancer activity against ER-positive human CAMA-1 cells assessed as effect on metabolic activity upto 10 uM incubated for 24 hrs by MTT assay; type: functional, cell-based
ZR-75-30 [2] = assay: Anticancer activity against ER-positive human ZR-75-30 cells assessed as effect on metabolic activity upto 10 uM incubated for 24 hrs by MTT assay; type: functional, cell-based
Mitochondrial membrane [3] = assay: Induction of mitochondrial membrane potential depolarization in human HCC1500 cells at 1 uM incubated for 24 hrs by 7-AAD staining based flow cytometric analysis; type: cell membranes
Mitochondrial membrane [4] = assay: Induction of mitochondrial membrane potential depolarization in human ZR-75-30 cells at 1 uM incubated for 24 hrs by 7-AAD staining based flow cytometric analysis; type: cell membranes
Mitochondrial membrane [5] = assay: Induction of mitochondrial membrane potential depolarization in human ZR-75-30 cells assessed as increase in fraction of depolarized dead cells at 5 uM incubated for 24 hrs by 7-AAD staining based flow cytometric analysis; type: cell membranes
Mitochondrial membrane [6] = assay: Induction of mitochondrial membrane potential depolarization in tamoxifen-induced senescent human CAMA-1 cells assessed as increase in depolarized dead cell level at 1 to 5 uM incubated for 24 hrs by 7-AAD staining based flow cytometric analysis; type: cell membranes; conditions: dose 1-5 µM
HCC1428 [7] = assay: Induction of mitochondrial dysfunction in tamoxifen-induced senescent human HCC1428 cells assessed as increase in proton leak at 5 uM incubated for 6 hrs by real-time analysis; type: functional, cell-based
MCF-10F [8] = assay: Induction of mitochondrial dysfunction in tamoxifen-induced senescent human MCF-10F cells assessed as decrease in coupling efficiency at 5 uM incubated for 6 hrs by real-time analysis; type: functional, cell-based
MCF-10F [9] = assay: Induction of mitochondrial dysfunction in tamoxifen-induced senescent human MCF-10F cells assessed as increase in proton leak at 5 uM incubated for 6 hrs by real-time analysis; type: functional, cell-based
HCC1428 [10] = assay: Induction of mitochondrial dysfunction in human HCC1428 cells assessed as decrease in maximal respiration at 5 uM incubated for 6 hrs by real time analysis; type: functional, cell-based
MCF-10F [11] = assay: Induction of mitochondrial dysfunction in human MCF-10F cells assessed as decrease in ATP production at 5 uM incubated for 6 hrs by real time analysis; type: functional, cell-based
HCC1428 [12] = assay: Induction of ubiquitin-dependent mitophagy in tamoxifen-induced senescent human HCC1428 cells assessed as increase in parkin level at 5 uM by immunostaining based imaging cytometric analysis; type: functional, cell-based
HCC1428 [13] = assay: Induction of ubiquitin-independent mitophagy in tamoxifen-induced senescent human HCC1428 cells assessed as increase in BNIP3 level at 1 to 5 uM by immunostaining based imaging cytometric analysis; type: functional, cell-based; conditions: dose 1-5 µM
HCC1500 [14] = assay: Induction of oxidative stress in tamoxifen-induced senescent human HCC1500 cells assessed as increase in mitochondrial superoxide production at 1 to 5 uM incubated for 24 hrs by MitoSOX red superoxide indicator based fluorescence analysis; type: functional, cell-based; conditions: dose 1-5 µM
CAMA-1 [15] = assay: Induction of oxidative stress in tamoxifen-induced senescent human CAMA-1 cells assessed as increase in mitochondrial superoxide production at 1 to 5 uM incubated for 24 hrs by MitoSOX red superoxide indicator based fluorescence analysis; type: functional, cell-based; conditions: dose 1-5 µM
HCC1428 [16] = assay: Induction of oxidative stress in tamoxifen-induced senescent human HCC1428 cells assessed as increase in mitochondrial superoxide production at 1 to 5 uM incubated for 24 hrs by MitoSOX red superoxide indicator based fluorescence analysis; type: functional, cell-based; conditions: dose 1-5 µM
ZR-75-30 [17] = assay: Induction of oxidative stress in tamoxifen-induced senescent human ZR-75-30 cells assessed as increase in mitochondrial superoxide production at 1 to 5 uM incubated for 24 hrs by MitoSOX red superoxide indicator based fluorescence analysis; type: functional, cell-based; conditions: dose 1-5 µM
HCC1428 [18] = assay: Induction of oxidative stress in tamoxifen-induced senescent human HCC1428 cells assessed as increase in mitochondrial SOD2 level at 1 to 5 uM incubated for 24 hrs by MitoSOX red superoxide indicator based fluorescence analysis; type: functional, cell-based; conditions: dose 1-5 µM
ZR-75-30 [19] = assay: Induction of oxidative stress in tamoxifen-induced senescent human ZR-75-30 cells assessed as increase in mitochondrial SOD2 level at 1 to 5 uM incubated for 24 hrs by MitoSOX red superoxide indicator based fluorescence analysis; type: functional, cell-based; conditions: dose 1-5 µM
HCC1500 [20] = assay: Induction of apoptosis in tamoxifen-induced senescent human HCC1500 cells assessed as phosphatidylserine externalization at 1 to 5 uM incubated for 24 hrs by Annexin V-FITC staining based flow cytometric analysis; type: functional, cell-based; conditions: dose 1-5 µM
HCC1428 [21] = assay: Induction of apoptosis in tamoxifen-induced senescent human HCC1428 cells assessed as phosphatidylserine externalization at 1 to 5 uM incubated for 24 hrs by Annexin V-FITC staining based flow cytometric analysis; type: functional, cell-based; conditions: dose 1-5 µM
ZR-75-30 [22] = assay: Induction of apoptosis in tamoxifen-induced senescent human ZR-75-30 cells assessed as phosphatidylserine externalization at 1 to 5 uM incubated for 24 hrs by Annexin V-FITC staining based flow cytometric analysis; type: functional, cell-based; conditions: dose 1-5 µM
MCF-10F [23] = assay: Induction of apoptosis in human MCF-10F cells assessed as assessed as phosphatidylserine externalization at 1 to 5 uM incubated for 24 hrs by Annexin V-FITC staining based flow cytometric analysis; type: functional, cell-based; conditions: dose 1-5 µM
HCC1428 [24] = assay: Induction of […] in human tamoxifen-induced senescent human HCC1428 cells at 1 to 5 uM incubated for 24 hrs by Annexin V-FITC staining based flow cytometric analysis; type: functional, cell-based; conditions: dose 1-5 µM
HCC1428 [25] = assay: Induction of apoptosis in tamoxifen-induced senescent human HCC1428 cells assessed as decrease in Bcl2 level at 5 uM incubated for 24 hrs by Western blot analysis; type: functional, cell-based
HCC1428 [26] = assay: Induction of apoptosis in human HCC1428 cells assessed as decrease in Bcl2 level at 1 to 5 uM incubated for 24 hrs by Western blot analysis; type: functional, cell-based; conditions: dose 1-5 µM
MCF-10F [27] = assay: Effect on Bcl-rambo protein level in tamoxifen-induced senescent human MCF-10F cells at 1 to 5 uM incubated for 24 hrs by Western blot analysis; type: functional, cell-based; conditions: dose 1-5 µM
[28] = biological target: Apoptosis regulator Bcl-2 (Homo sapiens) (UniProt P10415); assay: Binding affinity to recombinant human Bcl-2 assessed as interaction by measuring decrease in chemiluminescence signal at 0.01 to 5 uM incubated overnight by dot-blot analysis; conditions: dose 0.01-5 µM
Chain of Apoptosis regulator Bcl-2 (Homo sapiens) (P10415 whole entry): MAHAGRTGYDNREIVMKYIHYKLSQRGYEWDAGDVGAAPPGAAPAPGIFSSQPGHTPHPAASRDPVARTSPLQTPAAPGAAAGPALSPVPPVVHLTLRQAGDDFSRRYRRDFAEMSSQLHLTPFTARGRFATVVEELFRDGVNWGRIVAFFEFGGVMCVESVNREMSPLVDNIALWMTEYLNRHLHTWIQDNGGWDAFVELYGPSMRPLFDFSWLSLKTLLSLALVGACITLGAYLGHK

HCC1428 [29] = assay: Effect on phosphorylated to unphosphorylated AKT ratio in tamoxifen-induced senescent human HCC1428 cells assessed as decrease in phosphorylated AKT level at 1 to 5 uM incubated for 24 hrs by Western blotting analysis; type: functional, cell-based; conditions: dose 1-5 µM
HCC1500 [30] = assay: Induction of senescence in human HCC1500 cells assessed as […] in beta-galactosidase activity at 5 uM incubated for 24 hrs by immunostaining based imaging cytometric analysis; type: functional, cell-based
ZR-75-30 [31] = assay: Induction of senescence in human ZR-75-30 cells assessed as […] in beta-galactosidase activity at 5 uM incubated for 24 hrs by immunostaining based imaging cytometric analysis; type: functional, cell-based
CAMA-1 [32] = assay: Induction of senescence in human CAMA-1 cells assessed as increase in IL-8 level at 5 uM incubated for 24 hrs by immunostaining based imaging cytometric analysis; type: functional, cell-based
MCF7 [33] = assay: Antitumor activity against ER-positive human MCF7 cells xenografted in Danio rerio embryo assessed as decrease in tumor size at 1 to 5 uM administered for 48 hrs by imaging analysis; type: functional, cell-based; conditions: dose 1-5 µM
MCF7 [34] = assay: Antitumor activity against ER-positive human MCF7 cells xenografted in Danio rerio embryo assessed as increase in Bax mRNA level at 1 to 5 uM administered for 48 hrs by RT-PCR analysis; type: functional, cell-based; conditions: dose 1-5 µM

`CC(=O)Oc1ccc2c(=O)c(OCCCC[P+](c3ccccc3)(c3ccccc3)c3ccccc3)c(-c3ccc4c(c3)OC(c3ccccc3)(c3ccccc3)O4)oc2c1.[I-]` was tested, and the Activity (CAMA-1 [1]) was “Active”, the Activity (ZR-75-30 [2]) was “Active” and the Activity (Mitochondrial membrane [3]) was “Active”. For the same molecule, the Activity (Mitochondrial membrane [4]) was “Active”, the Activity (Mitochondrial membrane [5]) was “Active” and the Activity (Mitochondrial membrane [6]) was “Active”. For the same molecule, the Activity (HCC1428 [7]) was “Active”, the Activity (MCF-10F [8]) was “inactive” and the Activity (MCF-10F [9]) was “inactive”. The Activity (HCC1428 [10]) was “Active”, the Activity (MCF-10F [11]) was “inactive” and the Activity (HCC1428 [12]) was “Active”. The Activity (HCC1428 [13]) was “inactive”, the Activity (HCC1500 [14]) was “Active” and the Activity (CAMA-1 [15]) was “Active”. The Activity (HCC1428 [16]) was “Active”, the Activity (ZR-75-30 [17]) was “Active” and the Activity (HCC1428 [18]) was “Active”. The Activity (ZR-75-30 [19]) was “Active”, the Activity (HCC1500 [20]) was “Active” and the Activity (HCC1428 [21]) was “Active”. The Activity (ZR-75-30 [22]) was “Active”, the Activity (MCF-10F [23]) was “inactive” and the Activity (HCC1428 [24]) was “Active”. The Activity (HCC1428 [25]) was “Active”, the Activity (HCC1428 [26]) was “Active” and the Activity (MCF-10F [27]) was “inactive”. The Activity [28] was “Active”, the Activity (HCC1428 [29]) was “inactive” and the Activity (HCC1500 [30]) was “Active”. The Activity (ZR-75-30 [31]) was “Active”, the Activity (CAMA-1 [32]) was “inactive” and the Activity (MCF7 [33]) was “Active”. For the same molecule, the Activity (MCF7 [34]) was “Active”.
